US20120197004A1, “NOVEL ANTI-MICROBIAL PEPTIDOMIMETIC COMPOUNDS AND METHODS TO CALCULATE ANTI-MICROBIAL ACTIVITY” (priority 2006, published 2012)
≈ marks a conversion by molar mass, not a printed value. Read-outs that look alike come from different tables or passages of the source. Where a SMILES comes first, the peptide text is derived from it. [ ]: non-standard residue; d: D form. ξ: configuration not given here. ξTic = O=C(O)C1Cc2ccccc2CN1; ξOic = O=C(O)C1CC2CCCCC2N1; GABA = NCCCC(=O)O

Tests used:
[1] = test system: Plasmodium falciparum W2 (CDC Indochina III chloroquine, quinine, pyrimethamine and sulfadoxine-resistant)
[2] = test system: Plasmodium falciparum D6 (CDC Sierra Leone, mefloquine resistant)
[3] = test system: Staphylococcus aureus Methicillin/Gentamicin/Tetracycline Resistant (ATCC 33592)
[4] = test system: Salmonella typhimurium (ATCC 13311); conditions: ATCC 13311
[5] = test system: Mycobacterium ranae (ATCC 110); conditions: ATCC 110
[6] = test system: Bacillus subtillis (ATCC 43223); conditions: ATCC 43223
red blood cells = experiment: Hemolytic studies; conditions: 100 μM
[7] = Metabolic stability, dog liver microsomes
[8] = Metabolic stability, rat liver microsomes
[9] = Metabolic stability, human liver microsomes; conditions: for % remaining at time T, Human Liver: 0.5 mg/mL microsomes
[10] = Metabolic stability, mouse liver microsomes
[11] = Metabolic stability, monkey liver microsomes
[12] = liver microsomes, 1 μM, T = 60 min

**Q.** Which results are given for `CC(C)C[C@H](NC(=O)CNC(=O)[C@H](CCCCN)NC(=O)CN)C(=O)N1Cc2ccccc2CC1C(=O)N1C(C(=O)NCC(=O)N[C@@H](CCCCN)C(=O)N2Cc3ccccc3CC2C(=O)N2C(C(=O)NCC(=O)N[C@@H](Cc3ccccc3)C(=O)N3Cc4ccccc4CC3C(=O)N3C(C(=O)NCC(=O)N[C@@H](CCCCN)C(=O)N4Cc5ccccc5CC4C(=O)N4C(C(=O)NCC(=O)N[C@@H](Cc5ccccc5)C(=O)N5Cc6ccccc6CC5C(=O)N5C(C(=O)NCC(=O)N[C@@H](CCCCN)C(=O)N6Cc7ccccc7CC6C(=O)N6C(C(=O)NCC(=O)N[C@@H](CCCCN)C(=O)N[C@@H](CCCNC(=N)N)C(N)=O)CC7CCCCC76)CC6CCCCC65)CC5CCCCC54)CC4CCCCC43)CC3CCCCC32)CC2CCCCC21` (stereo partly drawn) [WRFK-1, NH2-GKGL-Tic-Oic-GK-Tic-Oic-GF-Tic-Oic-GK-Tic-Oic-GF-Tic-Oic-GK-Tic-Oic-GKR-CONH2] (H-GKGL[ξTic][ξOic]GK[ξTic][ξOic]GF[ξTic][ξOic]GK[ξTic][ξOic]GF[ξTic][ξOic]GK[ξTic][ξOic]GKR-NH2)?
**A.** IC50 * W2 [1]: 5.7 µg/mL (≈ 1.61 µM); IC50 * D6 [2]: 7.3 µg/mL (≈ 2.06 µM); MIC Staphylococcus aureus ME/GM/TC resistant ([3]; Minimal Inhibitory Concentration, tested at 100-0.1 in 1% DMSO): 10.00 µM (≈ 35.4 µg/mL); Minimum Inhibitory Concentration Staphylococcus aureus ME/GM/TC resistant ([3]; in vitro MIC, tested at 100, 30, 10, 3, 1, 0.3 and 0.1 μM in 1% DMSO): 10 µM

**Q.** Which results are given for `CC(=O)NCCCC(=O)N[C@@H](Cc1ccccc1)C(=O)N1Cc2ccccc2CC1C(=O)N1C(C(=O)NCCCC(=O)N[C@@H](CCCCN)C(=O)N2Cc3ccccc3CC2C(=O)N2C(C(=O)NCCCC(=O)N[C@@H](Cc3ccccc3)C(=O)N3Cc4ccccc4CC3C(=O)N3C(C(=O)NCCCC(=O)N[C@@H](CCCCN)C(=O)N4Cc5ccccc5CC4C(=O)N[C@@H](CCCCN)C(=O)N[C@@H](CCCCN)C(=O)N[C@@H](CCCCN)C(=O)N[C@@H](CCCCN)C(N)=O)CC4CCCCC43)CC3CCCCC32)CC2CCCCC21` (stereo partly drawn) [FKAB-1Gd, Ac-Gaba-F-Tic-Oic-Gaba-K-Tic-Oic-Gaba-F-Tic-Oic-Gaba-K-Tic-KKKK-CONH2] (Ac-[GABA]F[ξTic][ξOic][GABA]K[ξTic][ξOic][GABA]F[ξTic][ξOic][GABA]K[ξTic]KKKK-NH2)?
**A.** MIC Salmonella typhimurium [4]: 10 µM (≈ 25.5 µg/mL); MIC Staphylococcus aureus ME/GM/TC resistant ([3]; ATCC 33592): 100.00 µM (≈ 255 µg/mL); MIC Mycobacterium ranae [5]: 10.00 µM (≈ 25.5 µg/mL); Minimum Inhibitory Concentration Mycobacterium ranae [5]: 10 µM; MIC Bacillus Subtillis [6]: 1.00 µM (≈ 2.55 µg/mL); % hemolysis 100/25 μM (first value) (red blood cells): 10.8%/; % remaining, Dog Liver T = 15 ([7]; T = 15 min, 1 μM, 0.5 mg/mL microsomes): 35%; remaining at 0.5 h, 1 μM ([7]; dog, microsomes, pH 7.4): 34%; remaining at 1 h, 1 μM ([7]; dog, microsomes, pH 7.4): 55%; metabolic stability T = 60 min dog [7, 12]: High; metabolic stability T = 60 min rat [8, 12]: high; remaining at 0.25 h, 1 μM ([8]; rat, microsomes, pH 7.4): 67%; remaining at 0.5 h, 1 μM ([8]; rat, microsomes, pH 7.4): 78%; remaining at 1 h, 1 μM ([8]; rat, microsomes, pH 7.4): 83%; remaining at 0.25 h, 1 μM ([9]; human, microsomes, pH 7.4): 106%; metabolic stability T = 60 min human [9, 12]: high; % remaining at time T, Human Liver ([9]; second human column (T = 30 min, head not given), 1 μM): 94%; % remaining at time T, Human Liver ([9]; third human column (T = 60 min, head not given), 1 μM): 114%; metabolic stability T = 60 min mouse [10, 12]: very low; remaining at 0.25 h, 1 μM ([10]; mouse, microsomes, pH 7.4): 90%; remaining at 0.5 h, 1 μM ([10]; mouse, microsomes, pH 7.4): 7%; remaining at 1 h, 1 μM ([10]; mouse, microsomes, pH 7.4): 9%; metabolic stability T = 60 min monkey [11, 12]: high; remaining at 0.25 h, 1 μM ([11]; monkey, microsomes, pH 7.4): 16%; remaining at 0.5 h, 1 μM ([11]; monkey, microsomes, pH 7.4): 25%; remaining at 1 h, 1 μM ([11]; monkey, microsomes, pH 7.4): 76%
